The values below come from patent EP0525836B1, “Assay method using novel NAD synthetase” (priority 1986, dated 1988).

Chain of NAD synthetase ( EC 6.3.1.5 ) (P18843 whole entry): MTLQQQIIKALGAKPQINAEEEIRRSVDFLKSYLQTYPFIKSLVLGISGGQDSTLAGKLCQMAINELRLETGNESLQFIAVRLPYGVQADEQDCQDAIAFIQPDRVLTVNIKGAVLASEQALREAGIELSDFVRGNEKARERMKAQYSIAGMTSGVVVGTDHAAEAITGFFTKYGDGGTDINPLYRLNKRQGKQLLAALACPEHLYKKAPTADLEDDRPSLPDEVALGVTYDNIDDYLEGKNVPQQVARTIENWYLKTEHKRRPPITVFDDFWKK

The first assay concerns the target NAD synthetase ( EC 6.3.1.5 ) (Escherichia coli, UniProt P18843).
Experiment: not given
As to conditions: read-out: km-value, literature value; cited from earlier work.
In the case of `NC(=O)CC[C@H](N)C(=O)O` [L-glutamine], the Km was 16 mM.

In another assay the target is T1, NAD synthetase (Geobacillus stearothermophilus ATCC 12980, UniProt A0ACH1E6M2).
T1 sequence (A0ACH1E6M2 1-246): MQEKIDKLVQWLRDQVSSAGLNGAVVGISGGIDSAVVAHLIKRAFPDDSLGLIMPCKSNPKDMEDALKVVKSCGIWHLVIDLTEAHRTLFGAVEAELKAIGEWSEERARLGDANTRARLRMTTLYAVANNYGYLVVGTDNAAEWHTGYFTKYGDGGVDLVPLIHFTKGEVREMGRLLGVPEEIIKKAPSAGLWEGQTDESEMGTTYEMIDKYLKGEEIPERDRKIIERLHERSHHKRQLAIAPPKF
The experiment in a line: Substrate specificity: ( NH4 ) 2SO4 replaced by amino acids in the enzyme activity assay. In kind it is biochemical, Bacillus stearothermophilus H-804. As to conditions: ( NH4 ) 2SO4 25 mM replaced by the amino acid; activity on ( NH4 ) 2SO4 is 100. Here is the method: In any assay method for enzyme activity hereinafter described, ( NH4 ) 2SO4 25 mM may be replaced by L-valine, L-homosirine, L-serine, L-alanine, L-methine, L-tyrosine, L-threonine, L-leucine, L-isolucine, L-arginine, L-phenylalanine, L-histidine, L-asparagine or L-glutamine, and the enzymatic activity measured.
(§1) • 50 mM Tris-HC ℓ buffer pH 8.0 • 1 mM K C ℓ • 5 mM MgC ℓ 2 • 0.05 % bovine serum albumin • 2 mM ATP • 0.5 mM deamide-NAD • 25 mM ( NH4 )2 SO4
(§2) • 50 mM Tris-HCℓ buffer pH 8.0 • 10 U diaphorase ( Toyo Jozo Co. from genus Bacillus) • 3 % ethanol • 10 U alcohol dehydrogenase/m ℓ ( Toyo Jozo, yeast ) • 0.025 % NTB ( nitrotetrazolium blue ) • 0.1 % Triton X-100 • 10 mM EDTA
(§3) Reaction medium I ( 0.3 mℓ ) in a test tube is pre-incubated at 37 °C, and the enzyme solution ( 5 µ ℓ ) is added thereto. The mixture is then incubated at 37 °C for exactly 10 minutes.
(§4) Reaction medium II ( 0.8 mℓ ) is added thereto to stop the reaction and simultaneously to start the cycling reaction at 37°C for exactly 5 minutes. After stopping the cycling reaction by adding 0.1 N-HC ℓ( 2.0 mℓ) , the absorbency at 550 nm is measured to calculate the enzyme activity. The enzyme activity is calculated by the following equation : NAD synthetase activity ( mU/ m ℓ ) = (ΔA550)/(ΔS550)x(1.0)/(0.005)x(f)/(10) [formula] wherein ΔA: absorbency of specimen, ΔS: absorbency of standard solution ( 0.1 mM NAD ), 0.005: specimen volume ( mℓ ) 10 : reaction time, f : dilution ration.
Turning to ammonium sulfate [( NH4 ) 2SO4], the “Relative activity of the enzyme” value came to 100.

Staying with this assay, now noted: ( NH4 ) 2SO4 25 mM replaced by the amino acid; activity on ( NH4 ) 2SO4 is 100; read-out: Relative activity of the enzyme.
Take `C[C@H](N)C(=O)O` [L-alanine]: the activity at 25000 µM came out at 0%. Regarding `N=C(N)NCCC[C@H](N)C(=O)O` [L-arginine], the activity at 25000 µM was 0%.

Regarding `NC(=O)C[C@H](N)C(=O)O` [L-asparagine], the activity at 25000 µM stood at 0%.

For the molecule `NC(=O)CC[C@H](N)C(=O)O` [L-glutamine], the activity at 25000 µM worked out at 0%.

As to `N[C@@H](Cc1c[nH]cn1)C(=O)O` [L-histidine], the activity at 25000 µM was 0%. In the case of `N[C@@H](CCO)C(=O)O` [L-homosirine], the activity at 25000 µM came to 0%. Same read-out and setting: to `CC[C@H](C)[C@H](N)C(=O)O` [L-isolucine] belongs 0%; to `CC(C)C[C@H](N)C(=O)O` [L-leucine], 0%; to `CSCC[C@H](N)C(=O)O` [L-methine], 0%. On the same count and under the same terms, to `N[C@@H](Cc1ccccc1)C(=O)O` [L-phenylalanine] belongs 0%; to `N[C@@H](CO)C(=O)O` [L-serine], 0%. Consider `C[C@@H](O)[C@H](N)C(=O)O` [L-threonine], for which the activity at 25000 µM was determined as 0%.

In the case of `N[C@@H](Cc1ccc(O)cc1)C(=O)O` [L-tyrosine], the activity at 25000 µM is 0%. `CC(C)[C@H](N)C(=O)O` [L-valine]: the activity at 25000 µM came to 0%.

A further assay deals with T1, NAD synthetase. Description: Optimum concentration of metallic ion (Example 8). The format is biochemical, Bacillus stearothermophilus H-804. As to conditions: 0.25 to 4 mM tested in reaction medium I without MgCℓ2. Here is the method:
Reaction medium I : • 50 mM Tris-HC ℓ buffer pH 8.0 • 10 mM KC ℓ • 2 mM ATP • 0.05 % bovine serum albumin • 0.5 mM deamide-NAD • 25 mM ( NH4 )2SO4
Reaction medium II: • 50 mM Tris-HC ℓ buffer pH 8.0 • 10 U diaphorase/m ℓ ( Toyo Jozo Co, Bacillus ) • 3 % ethanol • 10 U alcohol dehydrogenase/mℓ (Toyobo Co, yeast) • 0.025 % NTB • 0.1 % Triton X-100 • 10mM EDTA
To a reaction medium I in a test tube were added 0.25, 0.50, 0.75, 1, 2, 3 and 4 mM MgCℓ2 and 0.25, 0.50, 0.75, 1, 2, 3 and 4 mM MnCℓ2, respectively; each was then treated, after adding the present NAD synthetase solution, according to an assay method as previously illustrated.
Optimum concentration of MnCℓ2 is at 3mM.
In turn, MnCℓ2 returned an Optimum concentration of 3 mM.

The target in another assay is T1, NAD synthetase. Description: biochemical. In kind it is biochemical, Bacillus stearothermophilus H-804. The conditions noted are these: 5 mM in reaction medium I. Here is the method: In the enzyme activity assay, each metallic ion ( 5 mM ), EDTA ( 20 mM ) or each surface active agent ( 0.1 % ) in Table 1 is added separately to the reaction medium I, and the enzyme activity is measured. […]
as §1, §2, §3, §4
Take NiCℓ2: the “Effect on enzyme activity” value was “inhibited”.

The assay is the same for the next values; noted with them: 20000 µM.
On to `O=C(O)CN(CCN(CC(=O)O)CC(=O)O)CC(=O)O` [EDTA, reference compound], for which the “Effect on enzyme activity” value is “no activity”.

The same assay, now with this note: metallic ion 5 mM added to reaction medium I, which contains MgCℓ2 5 mM; no addition = 100; 10 min.
Turning to AℓCℓ3, the Relative activity is 73.4%. As for BaCℓ2, the Relative activity was 89.5%. CaCℓ2: the Relative activity came to 48.4%. The same measure, in the same setting: to CsCℓ belongs 100%; to FeCℓ3, 88.4%.

Turning to KNO3, the Relative activity was 99.2%. As for LiCℓ, the Relative activity is 100%. On the same count and under the same terms, to MnCℓ2 belongs 54.0%. NaCℓ: the Relative activity is recorded as 102.4%. Still for that read-out and setting: to NaN3 belongs 102.4%; to NaNO3, 96.8%; to NiCℓ2, 7.3%.

The assay is the same for the next values; noted with them: read-out: Relative activity.
Turning to `O=C(O)CN(CCN(CC(=O)O)CC(=O)O)CC(=O)O` [EDTA, reference compound], the activity at 20000 µM is 0%.

The same assay, now with this note: surface active agent 0.1 % added to reaction medium I, which contains MgCℓ2 5 mM; no addition = 100.
As for Nonidet P-40, the Relative activity was 103.9%. For the molecule “iso-octyl phenoxy polyethyloxy ethanol [Triton X-100]”, the Relative activity came out at 109.6%.
